Assay results from the CheMixHub ionic liquid set.

Test: xn = mol fraction of the nth substance listed

C[NH+](C)CCC=C1c2ccccc2CCc2ccccc21.[Cl-] + CCCC[n+]1ccn(C)c1.[Cl-] + O
electrical conductivity [S/m], 100 kPa
Conditions	298 K	303 K	308 K	313 K	318 K
x2 = 0.00018, x1 = 0.0007057	0.498	0.501	0.511	0.509	0.527
x2 = 0.00018, x1 = 0.0007396	0.512	0.519	0.535	0.522	0.55
x2 = 0.00018, x1 = 0.000773	0.524	0.533	0.538	0.536	0.564
x2 = 0.00018, x1 = 0.0008057	0.543	0.55	0.551	0.561	0.581
x2 = 0.00018, x1 = 0.0008382	0.56	0.564	0.566	0.57	0.595
x2 = 0.00018, x1 = 0.0008701	0.569	0.578	0.58	0.587	0.613
x2 = 0.00018, x1 = 0.0009016	0.579	0.589	0.597	0.602	0.629
x2 = 0.00018, x1 = 0.0009322	0.591	–	0.611	0.62	–
x2 = 0.0001801, x1 = 8.875e-05	0.189	0.186	0.193	0.19	0.188
x2 = 0.0001801, x1 = 0.0001104	0.201	0.198	0.203	0.202	0.202
x2 = 0.0001801, x1 = 0.0001321	0.215	0.209	0.216	0.212	0.21
x2 = 0.0001801, x1 = 0.0001534	0.227	0.223	0.228	0.224	0.224
x2 = 0.0001801, x1 = 0.0001747	0.24	0.235	0.239	0.238	0.235
x2 = 0.0001801, x1 = 0.0001956	0.251	0.248	0.247	0.249	0.249
x2 = 0.0001801, x1 = 0.0002165	0.272	0.27	0.274	0.259	0.26
x2 = 0.0001801, x1 = 0.0002578	0.293	0.288	0.293	0.277	0.285
x2 = 0.0001801, x1 = 0.0002984	0.313	0.306	0.315	0.301	0.31
x2 = 0.0001801, x1 = 0.0003383	0.328	0.328	0.335	0.321	0.332
x2 = 0.0001801, x1 = 0.0003776	0.348	0.345	0.353	0.34	0.351
x2 = 0.0001801, x1 = 0.0004164	0.365	0.368	0.37	0.357	0.374
x2 = 0.0001801, x1 = 0.0004544	0.385	0.383	0.388	0.381	0.392
x2 = 0.0001801, x1 = 0.0004919	0.406	0.401	0.407	0.397	0.413
x2 = 0.0001801, x1 = 0.0005289	0.42	0.416	0.427	0.42	0.431
x2 = 0.0001801, x1 = 0.0005653	0.437	0.435	0.44	0.433	0.455
x2 = 0.0001801, x1 = 0.0006012	0.451	0.452	0.46	0.457	0.471
x2 = 0.0001801, x1 = 0.0006365	0.469	0.469	0.476	0.472	0.493
x2 = 0.0001801, x1 = 0.0006715	0.485	0.485	0.496	0.491	0.51
x2 = 0.0001802, x1 = 2.245e-05	0.15	–	0.147	0.156	0.152
x2 = 0.0001802, x1 = 4.474e-05	0.165	0.159	0.162	0.167	0.163
x2 = 0.0001802, x1 = 6.683e-05	0.177	0.174	0.182	0.179	0.176

CC(C)[C@H](NC(=O)CN)C(=O)O + CCCCCCCCCCCC[N+](C)(C)Cc1ccccc1.[Cl-] + O
electrical conductivity [S/m], 101 kPa
Conditions	293.15 K	298.15 K	303.15 K	308.15 K	313.15 K
x1 = 0.0008948, x2 = 0	0.00327	0.00375	0.00427	0.00485	0.0055
x1 = 0.001799, x2 = 0	0.00533	0.00608	0.0069	0.0078	0.00879

CCCCCC[n+]1ccn(C)c1.[Cl-] + CN(C)C=O
101 kPa
Conditions	viscosity [mPa·s]
288.15 K, x2 = 0.2751	230
308.15 K, x2 = 0.6856	9.1

CCC(C)O (stereo not given) + CCOS(=O)(=O)[O-].CC[n+]1ccn(C)c1
Conditions	viscosity [mPa·s]
308.15 K, 101 kPa, x2 = 0	2

CCCC[n+]1ccccc1.F[B-](F)(F)F + CCCC[n+]1ccccc1.O=S(=O)([N-]S(=O)(=O)C(F)(F)F)C(F)(F)F
101 kPa, x2 = 0
Conditions	viscosity [mPa·s]
303.15 K	123.6
353.15 K	17.7

CC[N+](CC)=C(N(C)C)N(C)C.O=S(=O)([N-]S(=O)(=O)C(F)(F)F)C(F)(F)F + CO
101 kPa
Conditions	electrical conductivity, 293.2 K [S/m]	viscosity, 293.15 K [mPa·s]	viscosity, 298.15 K [mPa·s]	viscosity, 303.15 K [mPa·s]	viscosity, 308.15 K [mPa·s]	viscosity, 313.15 K [mPa·s]	viscosity, 318.15 K [mPa·s]	viscosity, 323.15 K [mPa·s]
x1 = 0.0003107	0.0546	0.59	0.556	0.528	0.493	0.462	0.442	0.42
x1 = 0.0006532	0.102	0.597	0.56	0.532	0.497	0.466	0.445	0.423
x1 = 0.00159	0.205	0.604	0.568	0.538	0.503	0.471	0.45	0.427
x1 = 0.003264	0.334	0.619	0.58	0.55	0.514	0.481	0.459	0.435
x1 = 0.006358	0.564	0.646	0.605	0.573	0.535	0.5	0.477	0.452
x1 = 0.01246	0.89	0.702	0.656	0.617	0.576	0.538	0.514	0.488
x1 = 0.01888	1.17	0.766	0.715	0.672	0.627	0.585	0.554	0.525
x1 = 0.02468	1.31	0.822	0.767	0.715	0.667	0.622	0.59	0.558
x1 = 0.03071	1.47	0.893	0.828	0.774	0.718	0.67	0.631	0.596
x1 = 0.03685	1.59	0.963	0.891	0.827	0.77	0.719	0.675	0.636
x1 = 0.04275	1.67	1.048	0.966	0.894	0.83	0.773	0.724	0.68
x1 = 0.05163	1.78	1.152	1.06	0.979	0.907	0.844	0.788	0.739
x1 = 0.05988	1.83	1.267	1.162	1.07	0.989	0.918	0.856	0.801
x1 = 0.07419	1.89	1.484	1.356	1.244	1.146	1.06	0.985	0.919
x1 = 0.08753	1.9	1.71	1.56	1.429	1.313	1.21	1.119	1.04

O=C([O-])c1ccccc1.[Na+] + CCOS(=O)(=O)[O-].CC[n+]1ccn(C)c1 + O
viscosity [mPa·s], 101.3 kPa
Conditions	293.15 K	298.15 K	303.15 K	308.15 K	313.15 K
x1 = 0.0001784, x2 = 0	1.009	0.897	0.803	0.727	0.651
x1 = 0.0001804, x2 = 0.001795	1.079	0.966	0.851	0.757	0.685
x1 = 0.0001842, x2 = 0.002697	1.114	0.994	0.883	0.795	0.716
x1 = 0.0001899, x2 = 0.003589	1.144	1.024	0.907	0.819	0.735
x1 = 0.0005403, x2 = 0	1.014	0.903	0.809	0.733	0.657
x1 = 0.0005539, x2 = 0.001794	1.086	0.973	0.858	0.764	0.692
x1 = 0.0005579, x2 = 0.002696	1.121	1.001	0.89	0.802	0.723
x1 = 0.0005619, x2 = 0.003587	1.151	1.032	0.915	0.827	0.743
x1 = 0.0009002, x2 = 0	1.019	0.908	0.814	0.738	0.662
x1 = 0.0009234, x2 = 0.001794	1.092	0.979	0.864	0.77	0.698
x1 = 0.0009314, x2 = 0.002695	1.128	1.008	0.897	0.809	0.73
x1 = 0.0009412, x2 = 0.003586	1.158	1.039	0.922	0.834	0.75
x1 = 0.001258, x2 = 0	1.024	0.913	0.819	0.743	0.667
x1 = 0.001287, x2 = 0.001793	1.098	0.984	0.869	0.776	0.703
x1 = 0.001299, x2 = 0.002694	1.134	1.014	0.903	0.815	0.737
x1 = 0.001311, x2 = 0.003585	1.165	1.047	0.929	0.841	0.757
x1 = 0.001619, x2 = 0	1.029	0.918	0.824	0.748	0.672
x1 = 0.001651, x2 = 0.001792	1.103	0.99	0.875	0.781	0.709
x1 = 0.001674, x2 = 0.002693	1.14	1.02	0.91	0.821	0.742
x1 = 0.001689, x2 = 0.003583	1.172	1.053	0.936	0.848	0.764
x1 = 0.001978, x2 = 0	1.034	0.923	0.829	0.753	0.677
x1 = 0.002025, x2 = 0.001792	1.108	0.997	0.881	0.786	0.715
x1 = 0.002045, x2 = 0.002692	1.146	1.027	0.915	0.827	0.748
x1 = 0.002068, x2 = 0.003582	1.178	1.059	0.943	0.854	0.77

C[n+]1ccn(CCCC#N)c1.O=S(=O)([O-])C(F)(F)F + O=C1CCCO1
100 kPa
Conditions	electrical conductivity [S/m]
288.15 K, x1 = 0.3003	0.53
288.15 K, x1 = 0.6002	0.186
288.15 K, x1 = 1	0.023
293.15 K, x1 = 0.9004	0.069
298.15 K, x1 = 0.9004	0.092
303.15 K, x1 = 0.4999	0.459
303.15 K, x1 = 0.8002	0.179
303.15 K, x1 = 0.9004	0.12
308.15 K, x1 = 0.6002	0.408
308.15 K, x1 = 1	0.083
313.15 K, x1 = 0.3003	1.08
313.15 K, x1 = 0.6002	0.476
313.15 K, x1 = 0.7001	0.372
318.15 K, x1 = 0.8002	0.323
318.15 K, x1 = 0.9004	0.234
318.15 K, x1 = 1	0.134
323.15 K, x1 = 0.3003	1.344
323.15 K, x1 = 0.8002	0.384
323.15 K, x1 = 0.9004	0.281
323.15 K, x1 = 1	0.167
333.15 K, x1 = 0.3999	1.323
338.15 K, x1 = 0.3003	1.79
338.15 K, x1 = 1	0.3
343.15 K, x1 = 0.7001	0.851

CCCCCC[n+]1ccn(C)c1.[Cl-] + CCCCCO
101 kPa
Conditions	viscosity [mPa·s]
293.15 K, x1 = 0.0088	4.33
293.15 K, x2 = 0.849	10.53
303.15 K, x1 = 0.0042	3.1
303.15 K, x1 = 0.0166	3.41
303.15 K, x2 = 0.1514	1675
313.15 K, x1 = 0.0042	2.37
313.15 K, x2 = 0.2971	259.6
313.15 K, x2 = 0.8012	8.12
323.15 K, x2 = 0	783
323.15 K, x2 = 0.8012	6.29
333.15 K, x2 = 0.7018	9.13

COCCOCCOC + CCCC[n+]1ccn(C)c1.F[P-](F)(F)(F)(F)F
100 kPa
Conditions	viscosity [mPa·s]
283.15 K, x2 = 0.2056	7.206
283.15 K, x2 = 0.5857	63.81
283.15 K, x2 = 0.8057	237.7
283.15 K, x2 = 0.8992	407
293.15 K, x2 = 0.1028	2.611
293.15 K, x2 = 0.4923	23.24
293.15 K, x2 = 0.5839	39.17
293.15 K, x2 = 0.9523	295.7
303.15 K, x2 = 0.0572	1.283
303.15 K, x2 = 0.3956	8.98
303.15 K, x2 = 0.7842	65.7
313.15 K, x2 = 0.3979	4.083
313.15 K, x2 = 0.5861	13.01
